What is called MIC is the lowest concentration that inhibits growth of the organism.

These results are taken from ChEMBL document CHEMBL2396620, “Synthesis and biological evaluation of novel benzoxazinyl-oxazolidinones as potential antibacterial agents” (2013).

What all share (assay type): functional
The subject of experiment [1] is Enterococcus faecalis. Description: Antibacterial activity against Enterococcus faecalis assessed as growth inhibition after 16 hrs by agar dilution method. On the technique in general: In agar dilution the substance is mixed into plates at graded concentrations.
Experiment [2] concerns Staphylococcus epidermidis. Description: Antibacterial activity against methicillin-sensitive Staphylococcus epidermidis assessed as growth inhibition after 16 hrs by agar dilution method.
The subject of experiment [3] is Staphylococcus aureus. Description: Antibacterial activity against methicillin-resistant Staphylococcus aureus assessed as growth inhibition after 16 hrs by agar dilution method.
For experiment [4], the system named is Streptococcus pneumoniae. Description: Antibacterial activity against penicillin-resistant Streptococcus pneumoniae assessed as growth inhibition after 16 hrs by agar dilution method.
Experiment [5] has as its system Staphylococcus aureus. Description: Antibacterial activity against methicillin-sensitive Staphylococcus aureus assessed as growth inhibition after 16 hrs by agar dilution method.
The test system of experiment [6] is Staphylococcus epidermidis. The experiment is described as follows: Antibacterial activity against methicillin-resistant Staphylococcus epidermidis assessed as growth inhibition after 16 hrs by agar dilution method.
The subject of experiment [7] is Enterococcus faecalis. Description: Ratio of linezolid MIC to compound MIC for Enterococcus faecalis.
The subject of experiment [8] is Staphylococcus aureus. Description: Ratio of linezolid MIC to compound MIC for methicillin-sensitive Staphylococcus aureus.
The subject of experiment [9] is Staphylococcus epidermidis. Description: Ratio of linezolid MIC to compound MIC for methicillin-sensitive Staphylococcus epidermidis.
For experiment [10], the system named is Streptococcus pneumoniae. Description: Ratio of linezolid MIC to compound MIC for penicillin-resistant Streptococcus pneumoniae.

Converted amounts (≈) assume the structure as drawn. Where only a bound is given, the exact number is not on record here.

As to `Cn1nnc(-c2ccc(-c3ccc4c(c3)OC[C@H]3[C@H](Cn5ccnn5)OC(=O)N43)cn2)n1`, the minimum inhibitory concentration (MIC) in the experiment on Enterococcus faecalis [1] amounted to 4 µg/mL (≈ 9.27 µM); in experiment [2] it was 1 µg/mL (≈ 2.32 µM); in the experiment on Staphylococcus aureus [3], 2 µg/mL (≈ 4.64 µM); in the experiment with Streptococcus pneumoniae [4] it was 1 µg/mL (≈ 2.32 µM); in the experiment with Staphylococcus aureus [5], 2 µg/mL (≈ 4.64 µM); in experiment [6], 2 µg/mL (≈ 4.64 µM).

For `NC(=O)[C@@H]1OC(=O)N2c3ccc(-c4ccc(Cn5cncn5)nc4)cc3OC[C@@H]12`, the MIC (in the experiment with Enterococcus faecalis [1]; in experiment [2]; in the experiment with Staphylococcus aureus [3]; in the experiment on Streptococcus pneumoniae [4]; with Staphylococcus aureus [5]; in [6]) was over 32 µg/mL in each case.

On to `O=C1O[C@@H](Cn2ccnn2)[C@@H]2COc3cc(-c4ccc(Cn5cncn5)nc4)ccc3N12`, for which the MIC worked out at 1 µg/mL (≈ 2.32 µM) with Enterococcus faecalis [1]; 0.5 µg/mL (≈ 1.16 µM) in experiment [2]; 0.5 µg/mL (≈ 1.16 µM) in the experiment on Staphylococcus aureus [3]; 2 µg/mL (≈ 4.65 µM) with Streptococcus pneumoniae [4]; 0.5 µg/mL (≈ 1.16 µM) with Staphylococcus aureus [5]; 0.5 µg/mL (≈ 1.16 µM) in experiment [6]. Further, the Ratio (in the experiment on Enterococcus faecalis [7]; with Staphylococcus aureus [8]; in [9]) was 2 each time.

For the compound `CC(O)c1ccc(-c2ccc3c(c2)OC[C@H]2[C@H](Cn4ccnn4)OC(=O)N32)cn1` (some centres not stated), the minimum inhibitory concentration (MIC) with Enterococcus faecalis [1] amounted to 2 µg/mL (≈ 5.08 µM); in experiment [2] it was 1 µg/mL (≈ 2.54 µM); in the experiment with Staphylococcus aureus [3], 1 µg/mL (≈ 2.54 µM); with Streptococcus pneumoniae [4], 0.5 µg/mL (≈ 1.27 µM); with Staphylococcus aureus [5], 1 µg/mL (≈ 2.54 µM); in experiment [6], 1 µg/mL (≈ 2.54 µM).

For the compound `Cc1nc(-c2ccc(-c3ccc4c(c3)OC[C@H]3[C@H](C(N)=O)OC(=O)N43)cn2)no1`, the MIC (with Enterococcus faecalis [1]; in [2]; in the experiment on Streptococcus pneumoniae [4]; in the experiment with Staphylococcus aureus [5]) was over 32 µg/mL throughout.

Take `C/C(=N\OC(C)C)c1ccc(-c2ccc3c(c2)OC[C@H]2[C@H](Cn4ccnn4)OC(=O)N32)cn1`: the MIC (with Enterococcus faecalis [1]; in [2]; in the experiment with Streptococcus pneumoniae [4]; in the experiment on Staphylococcus aureus [5]) was over 32 µg/mL throughout.

As to `NC(=O)[C@@H]1OC(=O)N2c3ccc(-c4ccc(-n5ccoc5=O)nc4)cc3OC[C@@H]12`, the MIC (with Enterococcus faecalis [1]; in [2]; in the experiment on Staphylococcus aureus [3]; with Streptococcus pneumoniae [4]; with Staphylococcus aureus [5]; in experiment [6]) was over 32 µg/mL in each case.

Regarding `N#Cc1ccc(-c2ccc3c(c2)OC[C@H]2[C@H](C(N)=O)OC(=O)N32)cn1`, the MIC (with Enterococcus faecalis [1]; in [2]; in the experiment on Streptococcus pneumoniae [4]; in the experiment with Staphylococcus aureus [5]) was over 32 µg/mL throughout.

For `O=C1O[C@@H](Cn2ccnn2)[C@@H]2COc3cc(-c4ccc(-n5cc(CO)oc5=O)nc4)ccc3N12`, the MIC with Enterococcus faecalis [1] is 1 µg/mL (≈ 2.16 µM); in experiment [2] it was 0.5 µg/mL (≈ 1.08 µM); with Staphylococcus aureus [3], 1 µg/mL (≈ 2.16 µM); in the experiment on Streptococcus pneumoniae [4] it was 0.5 µg/mL (≈ 1.08 µM); with Staphylococcus aureus [5] it was 0.5 µg/mL (≈ 1.08 µM); in experiment [6] it was 1 µg/mL (≈ 2.16 µM).

Regarding `O=C1O[C@@H](Cn2ccnn2)[C@@H]2COc3cc(-c4ccc(CO)nc4)ccc3N12`, the minimum inhibitory concentration (MIC) in the experiment on Enterococcus faecalis [1] came out at 4 µg/mL (≈ 10.5 µM); in experiment [2], 1 µg/mL (≈ 2.64 µM); in the experiment with Staphylococcus aureus [3], 1 µg/mL (≈ 2.64 µM); in the experiment with Streptococcus pneumoniae [4] it was 2 µg/mL (≈ 5.27 µM); in the experiment with Staphylococcus aureus [5], 2 µg/mL (≈ 5.27 µM); in [6] it was 1 µg/mL (≈ 2.64 µM).

In the case of `O=C1O[C@@H](Cn2ccnn2)[C@@H]2COc3cc(-c4ccc(Cn5cnnn5)nc4)ccc3N12`, the MIC in the experiment with Enterococcus faecalis [1] amounted to 4 µg/mL (≈ 9.27 µM); in [2], 1 µg/mL (≈ 2.32 µM); with Staphylococcus aureus [3], 2 µg/mL (≈ 4.64 µM); with Streptococcus pneumoniae [4], 4 µg/mL (≈ 9.27 µM); in the experiment with Staphylococcus aureus [5] it was 2 µg/mL (≈ 4.64 µM); in experiment [6], 1 µg/mL (≈ 2.32 µM).

As for `Cn1nnnc1-c1ccc(-c2ccc3c(c2)OC[C@H]2[C@H](Cn4ccnn4)OC(=O)N32)cn1`, the MIC is 4 µg/mL (≈ 9.27 µM) in the experiment with Enterococcus faecalis [1]; 1 µg/mL (≈ 2.32 µM) in [2]; 1 µg/mL (≈ 2.32 µM) in the experiment with Staphylococcus aureus [3]; 2 µg/mL (≈ 4.64 µM) in the experiment with Streptococcus pneumoniae [4]; 2 µg/mL (≈ 4.64 µM) in the experiment with Staphylococcus aureus [5]; 1 µg/mL (≈ 2.32 µM) in [6].

`O=C1O[C@@H](Cn2ccnn2)[C@@H]2COc3cc(-c4ccc(Cn5ccnn5)nc4)ccc3N12`: the MIC in the experiment on Enterococcus faecalis [1] amounted to 4 µg/mL (≈ 9.29 µM); in experiment [2] it was 1 µg/mL (≈ 2.32 µM); with Staphylococcus aureus [3] it was 1 µg/mL (≈ 2.32 µM); in the experiment on Streptococcus pneumoniae [4] it was 2 µg/mL (≈ 4.65 µM); with Staphylococcus aureus [5] it was 2 µg/mL (≈ 4.65 µM); in experiment [6], 1 µg/mL (≈ 2.32 µM).

`Cc1nc(-c2ccc(-c3ccc4c(c3)OC[C@H]3[C@H](Cn5ccnn5)OC(=O)N43)cn2)no1`: the MIC worked out at 8 µg/mL (≈ 18.5 µM) in the experiment with Enterococcus faecalis [1]; 2 µg/mL (≈ 4.64 µM) in experiment [2]; 2 µg/mL (≈ 4.64 µM) in the experiment with Staphylococcus aureus [3]; 1 µg/mL (≈ 2.32 µM) in the experiment on Streptococcus pneumoniae [4]; 2 µg/mL (≈ 4.64 µM) in the experiment with Staphylococcus aureus [5]; 4 µg/mL (≈ 9.27 µM) in [6].

Consider `CN1C[C@@H](c2ccc(-c3ccc4c(c3)OC[C@H]3[C@H](Cn5ccnn5)OC(=O)N43)cn2)OC1=O`, for which the MIC was determined as 2 µg/mL (≈ 4.46 µM) in the experiment with Enterococcus faecalis [1]; 0.5 µg/mL (≈ 1.11 µM) in experiment [2]; 1 µg/mL (≈ 2.23 µM) with Staphylococcus aureus [3]; 0.25 µg/mL (≈ 0.557 µM) in the experiment on Streptococcus pneumoniae [4]; 0.5 µg/mL (≈ 1.11 µM) in the experiment on Staphylococcus aureus [5]; 1 µg/mL (≈ 2.23 µM) in experiment [6].

Turning to `CC(=O)c1ccc(-c2ccc3c(c2)OC[C@H]2[C@H](Cn4ccnn4)OC(=O)N32)cn1`, the minimum inhibitory concentration (MIC) with Enterococcus faecalis [1] is 2 µg/mL (≈ 5.11 µM); in experiment [2], 0.5 µg/mL (≈ 1.28 µM); in the experiment with Staphylococcus aureus [3], 0.5 µg/mL (≈ 1.28 µM); in the experiment with Streptococcus pneumoniae [4] it was 0.25 µg/mL (≈ 0.639 µM); in the experiment with Staphylococcus aureus [5] it was 0.5 µg/mL (≈ 1.28 µM); in [6] it was 1 µg/mL (≈ 2.56 µM).

For the compound `CC(=O)NC[C@H]1CN(c2ccc(N3CCOCC3)c(F)c2)C(=O)O1` [LINEZOLID], the MIC (in [2]; in the experiment on Staphylococcus aureus [3]; with Staphylococcus aureus [5]; in experiment [6]) was 1 µg/mL (≈ 2.96 µM) in each case.

`N#Cc1ccc(-c2ccc3c(c2)OC[C@H]2[C@H](Cn4ccnn4)OC(=O)N32)cn1`: the Ratio (in the experiment with Streptococcus pneumoniae [10]; in the experiment with Enterococcus faecalis [7]; in the experiment on Staphylococcus aureus [8]; in experiment [9]) was 4 in each case. Also, the MIC in the experiment on Enterococcus faecalis [1] is 1 µg/mL (≈ 2.67 µM); in [2], 0.25 µg/mL (≈ 0.668 µM); in the experiment with Staphylococcus aureus [3], 0.25 µg/mL (≈ 0.668 µM); with Streptococcus pneumoniae [4], 0.25 µg/mL (≈ 0.668 µM); in the experiment with Staphylococcus aureus [5], 0.25 µg/mL (≈ 0.668 µM); in [6] it was 0.25 µg/mL (≈ 0.668 µM).

On to `O=C1O[C@@H](Cn2ccnn2)[C@@H]2COc3cc(-c4ccc(Cn5ncnn5)nc4)ccc3N12`, for which the minimal inhibitory concentration (MIC) with Enterococcus faecalis [1] is 2 µg/mL (≈ 4.64 µM); in experiment [2], 0.5 µg/mL (≈ 1.16 µM); with Staphylococcus aureus [3], 1 µg/mL (≈ 2.32 µM); in the experiment on Streptococcus pneumoniae [4], 2 µg/mL (≈ 4.64 µM); with Staphylococcus aureus [5] it was 1 µg/mL (≈ 2.32 µM); in experiment [6] it was 1 µg/mL (≈ 2.32 µM).

For the compound `CCO/N=C(\C)c1ccc(-c2ccc3c(c2)OC[C@H]2[C@H](Cn4ccnn4)OC(=O)N32)cn1`, the MIC (in the experiment with Enterococcus faecalis [1]; in experiment [2]; in the experiment on Streptococcus pneumoniae [4]; in the experiment on Staphylococcus aureus [5]) was over 32 µg/mL in each case.
